Reference: US9974305B2, “Fungicidal or bactericidal composition, and method for controlling diseases” (NISSAN CHEMICAL INDUSTRIES, LTD., priority 2014, dated 2018)

How the values were obtained:
Type in all cases: in vivo
[1] = test system: rice sheath blight fungus (Rhizoctonia solani); experiment: Efficacy test on rice sheath blight, spray treatment and prevention test (Test Examples 5-6); conditions: single compound 250 ppm, lesion height
Procedure: An agent comprising the following compound listed in Table 2 (active ingredient A) and the compound listed in Table 6 (C17: active ingredient B) as active ingredients, was prepared in accordance with the above Formulation Example. The agent was diluted with water to a predetermined concentration to obtain a test solution. Then, in a plastic pot of 90 cm^3, rice (Nipponbare) was seeded by 5 grains in one place, and to the grown seedlings in 4 seedling phase, the test solution was applied by a spray gun in an amount of 5 ml per pot, for treatment.
One day after the treatment, 1 g of mycelium flora of rice sheath blight fungus (Rhizoctonia solani) cultured in bran medium, was put by […] to a close-to-ground part of seedlings, and the pot was placed in a moist chamber set in temperature of 25° C. and humidity more than 95% RH for eight days. The height of the lesions which appeared in the highest position from the close-to-ground part (lesion height) was investigated, and the preventive value was calculated in accordance with the following formula. Preventive value=[1−(treated plot lesion height/untreated plot lesion height)]×100
(§1) Further, from the preventive value for each agent concentration, synergy was calculated by using the Colby method (Colby S. R. 1976, Weeds 15, 20-22).
Using the following compound listed in Table 2 (active ingredient A) and the compound listed in Table 6 (C17: active ingredient B) as active ingredients, a preventive test on rice sheath blight was conducted in accordance with the above Test Example 5.

[2] = test system: cucumber downy mildew (Pseudoperenospora cubensis); experiment: Efficacy test on cucumber downy mildew, spray treatment and prevention test (Test Example 7); conditions: single compound 250 ppm; lesion area ratio
Procedure: An agent comprising the following compound listed in Table 2 (active ingredient A) and the compound listed in Table 6 (C40: active ingredient B) as active ingredients, was prepared in accordance with the above Formulation Example. This agent was diluted with water to a predetermined concentration to obtain a test solution. Then, to seedlings of cucumber (variety: Sagami-hanjiro) at 1.5-leaf stage grown in a pot with a diameter of 7 cm, the test solution was applied by a spray gun in an amount of 10 ml per pot, for treatment. One day after the treatment, a spore suspension (2×100,000 cfu/ml) of cucumber downy mildew (Pseudoperenospora cubensis), was spray-inoculated, and the pot was placed in a moist chamber set in temperature of 20° C. and humidity more than 95% RH for 24 hours. After placing the pot in a glass greenhouse for 6 days, the ratio of the formed lesion area occupying the inoculated leaves was measured, and the preventive value was calculated in accordance with the following formula. Preventive value=[1−(treated plot lesion area ratio/untreated plot lesion area ratio)]×100
as §1

[3] = test system: wheat glume blotch (Leptosphaeria nodorum); experiment: Efficacy test on wheat glume blotch, seed treatment (Test Example 9); conditions: single compound
Procedure: An agent comprising the following compound listed in Table 2 (active ingredient A) and the compound listed in Table 11 (H35: active ingredient B) as active ingredients, was prepared in accordance with the above Formulation Example. This agent was diluted with water to a predetermined concentration to obtain a test solution. A predetermined amount of the test solution was put in a glass bottle of 5 ml, and 0.5 g (approximately 15 grains) of wheat seeds (variety: Haruyutaka) were added, stirred and air-dried. In each pot with a diameter of 7 cm having soil put therein, 3 grains were seeded and grown for 14 days. To seedlings of the wheat (variety: Haruyutaka) grown to a 1-leaf stage, a spore suspension (100,000 cfu/ml) of wheat glume blotch (Leptosphaeria nodorum) was spray-inoculated, and the pot was placed in a moist chamber set in temperature of 20° C. and humidity more than 95% RH for 48 hours. After placing the pot for 7 days in a glass greenhouse, the ratio of the formed lesion area occupying the inoculated leaves was measured, and the preventive value was calculated in accordance with the following formula. Preventive value=[1−(treated plot lesion area ratio/untreated plot lesion area ratio)]×100
(§2) Further, from the preventive value at each agent concentration, synergy was calculated by using the Colby method (Colby S. R. 1976, Weeds 15, 20-22).

[4] = test system: wheat powdery mildew (Blumeria graminis); experiment: Efficacy test on wheat powdery mildew, seed treatment (Test Example 10); conditions: wheat (Norin 61)
Procedure: An agent comprising the following compound listed in Table 2 (active ingredient A) and the compound listed in Table 11 (H35: active ingredient B) as active ingredients, was prepared in accordance with the above Formulation Example. This agent was diluted with water to a predetermined concentration to obtain a test solution. A predetermined amount of test solution was put in a glass bottle of 5 ml, and 0.5 g (approximately 15 grains) of wheat seeds (variety: Norin 61) were added, stirred and air-dried. In each pot with a diameter of 7 cm and having soil put therein, 3 grains were seeded and grown for 14 days. To the wheat seedlings grown to the 1-leaf stage, a spore suspension (100,000 cfu/ml) of wheat powdery mildew (Blumeria graminis) was spray-inoculated. After placing the pot in a glass greenhouse for 10 days, the ratio of the formed lesion area occupying the inoculated leaves was measured, and the preventive value was calculated in accordance with the following formula. Preventive value=[1−(treated plot lesion area ratio/untreated plot lesion area ratio)]×100
as §2

[5] = test system: cucumber powdery mildew (Sphaerotheca cucurbitae); experiment: Efficacy test on cucumber powdery mildew, irrigation treatment (Test Example 11); conditions: concentration 500 ppm, cucumber (Sagami-hanjiro)
Procedure: An agent comprising the following compound listed in Table 2 (active ingredient A) and the compound listed in Table 6 (C18: active ingredient B), was prepared in accordance with the above Formulation Example. This agent was diluted with water to a predetermined concentration to obtain a test solution. 5 ml of the test solution was irrigated by a pipette to the close-to-ground part of cucumber seedlings at the 1 leaf stage (variety: Sagami-hanjiro), grown in a styrol cup with a diameter of 10 cm, and next day, the seedlings were transplanted to the to 4 cun pots. Then, after cultivation for 7 days in a glass greenhouse, to the first true leaf of the cucumber, a spore suspension (100,000 cfu/ml) of cucumber powdery mildew (Sphaerotheca cucurbitae) was inoculated by spraying. After 10 days in a glass greenhouse, the ratio of the formed lesion area occupying the inoculated leaves was measured, and the preventive value was calculated in accordance with the following formula. Preventive value=[1−(treated plot lesion area ratio/untreated plot lesion area ratio)]×100
as §2

[6] = processing amount 5 mg/1 g seed
[7] = processing amount 10 mg/1 g seed

| Structure (SMILES) | Preventive value ([1]; Test Example 5) | Preventive value [2] | Preventive value [3, 6] | Preventive value [3, 7] | Preventive value [4, 6] | Preventive value [4, 7] | Preventive value [5] | Preventive value ([1]; Test Example 6) |
| --- | --- | --- | --- | --- | --- | --- | --- | --- |
| CC(C)O/N=C(/CNC(=O)c1ccccc1C(F)(F)F)c1ncc(Cl)cc1Cl [Compound No. 4] | 7 | 0 | 70 | 75 | 97 | 99 | 60 | – |
| COc1c(Cl)cnc(C(CNC(=O)c2ccccc2C(F)(F)F)=NOC(C)C)c1Cl [Compound No. 9] | – | 0 | 75 | 77 | 100 | 100 | 95 | 10 |
| CC#Cc1cnc(/C(CNC(=O)c2cn(C)nc2C(F)F)=N\OC(C)C)c(Cl)c1 [Compound No. 20, (Z)—N-[2-[3-chloro-5-(1-propynyl)pyridin-2-yl]-2-(isopropoxyimino)ethyl]-3-difluoromethyl-1-methyl-1H-pyrazole-4-carboxamide] | 0 | 5 | 90 | 99 | 100 | 100 | 100 | – |
| CC(C)O/N=C(/CNC(=O)c1cn(C)nc1C(F)F)c1ncc(C#CC2CC2)cc1Cl [Compound No. 25, (Z)—N-[2-[3-chloro-5-(cyclopropylethynyl)pyridin-2-yl]-2-(isopropoxyimino)ethyl]-3-difluoromethyl-1-methyl-1H-pyrazole-4-carboxamide] | – | 5 | 83 | 95 | 100 | 100 | 100 | 8 |
| CC(C)ON=C(CNC(=O)c1ccccc1C(F)(F)F)c1ncc(C(F)(F)F)cc1Cl [compound 14] | 6 | 0 | 41 | 82 | 97 | 100 | 22.5 | – |
| CON=C(CNC(=O)c1cn(C)nc1C(F)F)c1ncc(C#CC(C)(C)C)cc1Cl [compound 28] | 9 | 5 | 77 | 88 | 100 | 100 | 75 | – |
